Measured values: the supplement of paper PMC10307832

Columns and labels:
Experiment in all cases: relative viability (nuclei count vs DMSO), 5 days (fraction); higher = more cells survive
Avagacestat + Vorinostat = compound: NC(=O)[C@@H](CCC(F)(F)F)N(Cc1ccc(-c2ncon2)cc1F)S(=O)(=O)c1ccc(Cl)cc1 [Avagacestat] + O=C(CCCCCCC(=O)Nc1ccccc1)NO [Vorinostat] (partner 1 µM)
Outline: (§1)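 Medians of duplicate plates are given as relative viability. That measure is the nuclei count in treated wells divided by the count in vehicle wells. Counts were taken on 4× images of lung cancer cell lines in 1536-well plates, 5 days after pin-tool dosing the day after seeding with one drug alone or a fixed anchor-drug dose plus five library-drug doses (not always all listed) in √10 steps.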

Avagacestat + Pemetrexed = compound: NC(=O)[C@@H](CCC(F)(F)F)N(Cc1ccc(-c2ncon2)cc1F)S(=O)(=O)c1ccc(Cl)cc1 [Avagacestat] + Nc1nc2[nH]cc(CCc3ccc(C(=O)N[C@@H](CCC(=O)O)C(=O)O)cc3)c2c(=O)[nH]1 [Pemetrexed] (partner 0.2 µM)
Outline: as §1

Avagacestat + Linsitinib = compound: NC(=O)[C@@H](CCC(F)(F)F)N(Cc1ccc(-c2ncon2)cc1F)S(=O)(=O)c1ccc(Cl)cc1 [Avagacestat] + C[C@]1(O)C[C@@H](c2nc(-c3ccc4ccc(-c5ccccc5)nc4c3)c3c(N)nccn32)C1 [Linsitinib] (partner 1 µM)
Outline: as §1

Avagacestat + Navitoclax = compound: NC(=O)[C@@H](CCC(F)(F)F)N(Cc1ccc(-c2ncon2)cc1F)S(=O)(=O)c1ccc(Cl)cc1 [Avagacestat] + CC1(C)CCC(c2ccc(Cl)cc2)=C(CN2CCN(c3ccc(C(=O)NS(=O)(=O)c4ccc(N[C@H](CCN5CCOCC5)CSc5ccccc5)c(S(=O)(=O)C(F)(F)F)c4)cc3)CC2)C1 [Navitoclax] (partner 0.5 µM)
Outline: as §1

Row | Cell Line | relative viability (Avagacestat + Vorinostat; first compound 0.08 µM) | relative viability (Avagacestat + Vorinostat; first compound 0.253 µM) | relative viability (Avagacestat + Vorinostat; first compound 0.8 µM) | relative viability (Avagacestat + Vorinostat; first compound 2.53 µM) | relative viability (Avagacestat + Vorinostat; first compound 8 µM) | relative viability (Avagacestat + Pemetrexed; first compound 0.08 µM) | relative viability (Avagacestat + Pemetrexed; first compound 0.253 µM) | relative viability (Avagacestat + Pemetrexed; first compound 0.8 µM) | relative viability (Avagacestat + Pemetrexed; first compound 2.53 µM) | relative viability (Avagacestat + Pemetrexed; first compound 8 µM) | relative viability (Avagacestat + Linsitinib; first compound 0.08 µM) | relative viability (Avagacestat + Linsitinib; first compound 0.253 µM) | relative viability (Avagacestat + Linsitinib; first compound 0.8 µM) | relative viability (Avagacestat + Linsitinib; first compound 2.53 µM) | relative viability (Avagacestat + Linsitinib; first compound 8 µM) | relative viability (Avagacestat + Navitoclax; first compound 0.08 µM) | relative viability (Avagacestat + Navitoclax; first compound 0.253 µM) | relative viability (Avagacestat + Navitoclax; first compound 0.8 µM) | relative viability (Avagacestat + Navitoclax; first compound 2.53 µM) | relative viability (Avagacestat + Navitoclax; first compound 8 µM)
1 | NCI-H522 | 1.04 | 1.01 | 0.928 | 0.866 | 0.792 | 0.933 | 1.27 | 0.774 | 1.04 | 1.07 |  |  |  |  |  |  |  |  |  | 
2 | NCI-H650 | 0.439 | 0.537 | 0.56 | 0.455 | 0.435 | 1.05 | 1.04 | 1.04 | 0.944 | 0.868 | 1.22 | 0.927 | 1.08 | 0.912 | 0.848 |  |  |  |  | 
3 | NCI-H661 | 0.845 | 0.98 | 0.827 | 0.784 | 0.785 | 0.953 | 1.01 | 0.92 | 0.86 | 0.909 | 0.736 | 0.713 | 0.634 |  | 0.566 |  |  |  |  | 
4 | NCI-H727 | 1.27 | 1.19 | 1.21 | 1.18 | 1.19 |  |  |  |  |  | 0.252 | 0.342 | 0.35 | 0.278 | 0.26 | 0.408 | 0.461 | 0.596 | 0.339 | 0.459
5 | NCI-H1299 |  |  |  |  |  |  |  |  |  |  | 0.987 | 1.12 | 1 | 0.988 | 0.926 | 1.04 | 1.03 | 1.08 | 1.08 | 1.04
6 | NCI-H1563 |  |  |  |  |  | 0.811 | 0.664 | 0.82 | 0.711 | 0.683 | 1.25 | 1.26 | 1.18 | 1.03 | 1 |  |  |  |  | 
7 | NCI-H1648 | 0.512 | 0.374 | 0.31 | 0.35 | 0.276 | 0.572 | 0.505 | 0.451 | 0.467 | 0.505 |  |  |  |  |  |  |  |  |  | 
8 | NCI-H1650 | 0.593 | 0.692 | 0.51 | 0.599 | 0.67 | 0.357 | 0.387 | 0.365 | 0.381 | 0.382 |  |  |  |  |  | 1.1 | 1.31 | 1.52 | 1.43 | 1.12
9 | NCI-H1703 |  |  |  |  |  |  |  |  |  |  | 0.982 | 0.768 | 0.854 | 0.784 | 0.93 | 1.16 | 0.993 | 1.17 | 1.11 | 0.891
10 | NCI-H1792 |  |  |  |  |  | 1.54 | 1.08 | 1.28 | 0.818 | 0.451 | 0.648 | 0.424 | 0.692 | 0.383 | 0.368 | 1.25 | 0.584 | 1.13 | 0.538 | 0.417
11 | NCI-H2170 | 1.35 | 0.995 | 0.821 | 0.876 | 0.617 | 0.258 | 0.268 | 0.23 | 0.274 | 0.261 |  |  |  |  |  | 0.745 | 0.594 | 0.621 | 0.417 | 0.548
12 | NCI-H2342 | 0.845 | 0.822 | 0.842 | 0.705 | 0.774 | 0.849 | 0.803 | 0.903 | 0.725 | 0.782 |  |  |  |  |  |  |  |  |  | 
13 | SW 900 | 0.502 | 0.828 | 0.554 | 0.535 | 0.641 | 0.485 | 0.507 | 0.474 | 0.486 | 0.482 |  |  |  |  |  |  |  |  |  | 
